Experiments:
[1] = system: TNF-α; test: Oral adjuvant with OVA as antigen, serum TNF-α ELISA; assay type: in vivo, C57BL/6 mice; details: oral immunization with OVA 1 mg 3 times every 2 weeks, blood on second day after third immunization
Experimental: Serum TNF-α levels were measured in accordance with the protocol of mouse TNF-α ELISA kit (Invitrogen Corporation, BMS607-3).

[2] = system: OVA-specific IgA; test: Oral immunization with OVA plus adjuvant, ELISA of OVA-specific IgA in stools; assay type: in vivo, mice; details: OVA 1 mg with or without adjuvant on Day 0 and Day 16, stools Day 21
Experimental: Stools were collected on Day 21, and OVA-specific antibody measurement was performed by enzyme-linked immunosorbent assay (ELISA).
The stools were suspended in 10-times weight/volume (w/v) PBS. After performing centrifugation (8,000 g, 15 minutes), the supernatant was collected as a fecal extract. A plate was precoated with 1 mg/ml OVA overnight, followed by blocking with PBS containing 1% (w/v) bovine serum albumin at room temperature for 1 hour. Then, a serially diluted fecal extract was added to the plate, and the plate was incubated at room temperature for 1 hour. Relative avidity of IgA was detected using alkaline phosphatase-labeled goat anti-mouse IgA (manufactured by Southern Biotech). After incubation overnight at 4° C., optical density (OD) values at 405 nm were measured using TriStar Multimode Reader LB 942 (manufactured by Berthold Technologies GmbH & Co. KG).

[3] = system: PP GC; test: In vivo imaging of transplanted iGB cells induced by pre-stimulation (entry into PP GC); set-up: species or system Balb/c mice; details: splenic naive B cells pre-stimulated 3 days, cultured on 40LB cells 4 days, injected i.v.
Experimental: Then, 1×10^5 B220^+ B cells were isolated from the stimulated cells, and subsequently, the cells were seeded onto 40LB feeder cells supplemented with rIL-4 (1 ng/ml; BioLegend, Inc.) to induce iGB cells. As a control group, splenic naive B cells not subjected to stimulation were seeded onto the 40LB feeder cells supplemented with rIL-4 (1 ng/ml; BioLegend, Inc.). After culturing for 4 days, naive B-40LB cells, pam3CSK4-40LB cells, E. coli-40LB, IgM-40LB, and CpG-40LB cells of 3×10^5 iGB cells (B220^+) were isolated, labeled with CellTracker Orange CMTMR fluorescent dye (Invitrogen Corporation), and then separately injected intravenously into mice (Balb/c, 8 to 12 weeks old) together with 10 μg of AF488 anti-mouse MAdCAM-1 (BioLegend, Inc. mAb MECA-367) to identify HEV. Under anesthesia, 1 μg of AF647 anti-mouse IgA (Southern Biotech) was directly injected into the PPs of the same mice into which iGB cells were transferred, to stain the IgA^+ cells for GC identification. Localization of intravenously injected labeled iGB cells was observed using a microscope LSM880 (Carl Zeiss AG) and ZEN 2009 (Carl Zeiss AG) analysis software.

[4] = system: splenic naive B cells; test: B cell proliferation / number after in vitro stimulation; assay type: cell-based, Balb/c mice; details: compared to B cells stimulated with anti-IgM, anti-CD40, BAFF, poly I:C, flagellin, imiquimod
Experimental: (§1) Splenic B cells were negatively sorted from the spleens of 8-week-old Balb/c mice using a B cell isolation kit (Miltenyi Biotec B.V. & Co. KG). The splenic B cells (concentration: 5×10^5/ml) were cultured in RPMI1640 medium, and 13 types of independent stimuli were each applied thereto. Anti-mouse IgM (15 μg/ml; Jackson ImmunoResearch Laboratories Inc.) • 2. Anti-mouse-CD40 (HM40-3, 500 ng/ml; manufactured by BioLegend, Inc.) • 3. BAFF (50 ng/ml; BioLegend, Inc.) • 4. Pam3CSK4 (1 μg/ml, InvivoGen) • 5. Poly I:C (25 ng/ml, InvivoGen) • 6. LPS (50 ng/ml, Sigma-Aldrich, Inc.) • 7. Flagellin (20 ng/ml, Sigma-Aldrich, Inc.) • 8. Imiquimod (R837, 5 ng/ml; InvivoGen) • 9. CpG (20 μg/ml, GeneDsign Inc.) • 10. […] Heat-killed S. enterica (10^8 CFU/ml) • 12. Heat-killed B. bifidum (10^7 CFU/ml) • 13. Heat-killed B. breve (10^7 CFU/ml)

[5] = system: PNAhighB220+ PP GC B cells; test: Oral administration of heat-killed bacteria or pam3CSK4 to WT mice, PP GC B cells after 2 days; details: within 2 days
Experimental: Mice orally administered with 100 μl of PBS were prepared as controls. 2 days later, the PPs of these mice were excised, and B cells in the GCs were analyzed using Spectral Cell Analyzer SA3800 (Sony Biotechnology Inc.), as described above.

[6] = system: itgam (CD11b); test: qPCR analysis of itgam in B cells after stimulation; assay type: cell-based, Balb/c mice
Experimental: About 1×10^4 PP GC B cells (PNA^hiB220^+ cells) and about 1×10^4 non-GC PP B cells (PNA^loB220^+) were each sorted. RNAs were extracted from the isolated cells using NucleoSpin RNA XS (Takara Bio Inc.), and cDNAs were synthesized using GoScript (registered trademark) Reverse Transcriptase (Promega Corporation). Using KAPA SYBR (registered trademark) FAST qPCR Master Mix (2×) Kit (Kapa Biosystems, Inc.), real-time PCR was performed in triplicate on an optical 384-well PCR plate (F. Hoffmann-La Roche Ltd) using LightCycler 480 (F. Hoffmann-La Roche Ltd). Gene expression levels were normalized to the expression level of the housekeeping gene β-actin. The following primers were used for the analysis.
Splenic B cells were negatively sorted from the spleens of 8-week-old Balb/c mice using a B cell isolation kit (Miltenyi Biotec B.V. & Co. KG). The splenic B cells (concentration: 5×10^5/ml) were cultured in RPMI1640 medium, and 13 types of independent stimuli were each applied thereto. Anti-mouse IgM (15 μg/ml; Jackson ImmunoResearch Laboratories Inc.) • 2. Anti-mouse-CD40 (HM40-3, 500 ng/ml; manufactured by BioLegend, Inc.) • 3. BAFF (50 ng/ml; BioLegend, Inc.) • 4. Pam3CSK4 (1 μg/ml, InvivoGen) • 5. Poly I:C (25 ng/ml, InvivoGen) • 6. LPS (50 ng/ml, Sigma-Aldrich, Inc.) • 7. Flagellin (20 ng/ml, Sigma-Aldrich, Inc.) • 8. Imiquimod (R837, 5 ng/ml; InvivoGen) • 9. […]

[7] = system: CD11b expression in splenic naive B cells; test: Stimulation of splenic naive B cells in vitro, CD11b expression by flow cytometry; assay type: cell-based, Balb/c mice
Experimental: as §1
For MDP stimulation, purified splenic B cells (5×10^5/ml) were cultured in RPMI1640 medium supplemented with N-acetylmuramyl-L-alanyl-D-isoglutamine hydrate (1 μg/ml; Sigma-Aldrich Inc.).

[8] = system: CD11b expression in splenic B cells; test: CD11b expression in stimulated splenic B cells in the presence of TLR and NOD2 inhibitors; assay type: cell-based, Balb/c mice

With CpG-ODN1826 the “serum TNFα concentration” value [1] was “cause increase”.

With “OVA: ovalbumin, orally administered model antigen” the “OVA-specific IgA in the stools” value [2] was “did not increase”.

pam3CSK4 was tested, and the “entry into GC of iGB cells stimulated in advance, after intravenous injection into mice” value [3] was “most of the cells entered GC”, the “number of B cells after 3 days of culturing” value [4] was “significantly increased” and the “number of PP GC B cells” value [5] was “increased”. For the same molecule, the “proportion of PP GC B cells” value [5] was “increased”, the “expression of itgam (CD11b) in B cells” value [6] was “increased” and the “proportion of CD11b+ B cells in stimulated B cells” value ([7]; splenic naive B cells, 3 days stimulation) was 27.6%. The “OVA-specific IgA in the stools” value [2] was “increased”.

With `CCOC(=O)C1=CCCC[C@H]1S(=O)(=O)Nc1ccc(F)cc1Cl` [TLR4 inhibitor] the “proportion of CD11b+ B cells stimulated with pam3CSK4 and heat-killed E. coli when inhibitor was used” value ([8]; inhibitor 1 μM, pam3CSK4 1 μg/ml, heat-killed E. coli 10^7 CFU/ml) was “did not increase”.

For “N-acetylmuramyl-L-alanyl-D-isoglutamine hydrate [MDP]”, the “induction of CD11b expression by NOD2 ligand” value ([7]; purified splenic B cells, MDP 1 μg/ml) was “did not induce”.

`CN(CCc1nc2ccccc2n1CC(=O)Nc1ccc2c(c1)CCC2)C(=O)c1ccccc1` [NOD2 inhibitor] was tested, and the “CD11b expression in B cells stimulated with pam3CSK4 and heat-killed E. coli with inhibitor” value ([8]; NOD2 inhibitor 30 μM) was “strongly suppressed”.

B1: BAFF: B-cell activating factor, mimics interaction with DCs (protein, UniProt Q9WU72 127-309, looked up)
Tumor necrosis factor ligand …: AFQGPEETEQDVDLSAPPAPCLPGCRHSQHDDNGMNLRNIIQDCLQLIADSDTPTIRKGTYTFVPWLLSFKRGNALEEKENKIVVRQTGYFFIYSQVLYTDPIFAMGHVIQRKKVHVFGDELSLVTLFRCIQNMPKTLPNNSCYSAGIARLEEGDEIQLAIPRENAQISRNGDDTFFGALKLL
In the case of B1, the “induction of CD11b expression in naive splenic B cells” value ([7]; in vitro stimulation, 3 days culture, flow cytometry) is reported as “did not induce”.

Reference: patent US20250127889A1, “IMMUNOSTIMULATORY COMPOSITION” (Reiko SHINKURA, priority 2021, published 2025)
